Several values for one entry are separate records, joined by “and”; a condition that tells them apart may be missing. Identical values can stand only once. Values belong to the compound of their own block, whether it stands above or below them.
Key:
[1] = Heparin oral/intracolonic delivery, clotting time by activated partial thromboplastin time (APTT); format: in vivo, Sprague-Dawley rats; conditions: rats, baseline about 20 seconds
Description: Oral gavage (PO) and/or intracolonic (IC) dosing solutions containing a delivery agent compound and heparin sodium USP were prepared in 25% aqueous propylene glycol. […] This dry mixture was dissolved in 25% v/v aqueous propylene glycol, vortexed, and placed in a sonicator (about 37° C.). The pH was adjusted to about 7 (6.5 to 8.5) with aqueous NaOH (2N). The dosing solution was sonicated to produce a clear solution. The final volume was adjusted to about 3.0 ml.
(§1) The typical dosing and sampling protocols were as follows. […] The dosing solution was expressed slowly into the colon by pressing the syringe plunger.
Citrated blood samples were collected by cardiac puncture following the administration of ketamine (88 mg/kg), typically at 0.25, 0.5, 1.0 and 1.5 hours after dosing. Heparin absorption was verified by an increase in clotting time measured by the activated partial thromboplastin time (APTT) according to the method of Henry, J. B., Clinical Diagnosis and Management by Laboratory Methods, Philadelphia, Pa., W.B. Saunders (1979). Previous studies indicated baseline values of about 20 seconds.

[2] = Low molecular weight heparin (LMWH) oral/intracolonic delivery, plasma LMWH by anti-Factor Xa assay; format: in vivo, Sprague-Dawley rats; conditions: IC, rats, LMWH 750 IU/kg, 1 ml/kg
Description: Oral dosing (PO) and/or intracolonic (IC) compositions containing a delivery agent compound and low molecular weight heparin (LMWH) were prepared in 25% aqueous propylene glycol. […] Typically, the delivery agent compound and LMWH (Parnaparin, 91 IU/mg average molecular weight about 5,000, available from Opocrin, Modena, Italy) (typically 90-105 IU/mg, average molecular weight about 5,000) were mixed by vortex as dry powders. This dry mixture was dissolved in 25% v/v aqueous propylene glycol, vortexed, and placed in a sonicator (37° C.) to produce a clear solution. The pH was adjusted to about 7 (6.5-8.5) with 2N aqueous NaOH. The dosing solution was sonicated to produce a clear solution. The final volume was adjusted to 3.0 ml.
as §1
Citrated blood samples were collected by cardiac puncture following the administration of ketamine (88 mg/kg), typically at 0.5, 1.0, 2.0, 3.0 and 4.0 hours after dosing. LMWH absorption was verified by an increase in plasma LMWH measured by the anti-Factor Xa assay CHROMOSTRATE™ Heparin anti-Xa assay (available from Organon Teknika Corporation, Durham, N.C.). […] The peak of these mean plasma LMWH concentrations is reported below in Table 5.

[3] = Interferon oral delivery, serum IFN by immunoassay; format: in vivo, Sprague-Dawley rats; conditions: rats, delivery agent compound 200 mg/kg, IFN 1 mg/kg, 1 ml/kg
Description: Dosing solutions of delivery agent compound and human interferon (IFN) were prepared in deionized water. […] This mixture was vortexed and placed in a sonicator (about 37° C.). The pH was adjusted to about 7.0 to 8.5 with aqueous NaOH. The mixture was vortexed to produce a uniform suspension or solution, also using sonication and heat if necessary.
(§2) The typical dosing and sampling protocols were as follows.
Serum IFN concentrations were quantified using Cytoscreen Immunoassay Kit for human IFN-alpha (catalog # KHC4012 from Biosource International, Camarillo, Calif.). Previous studies indicated baseline values of about zero.

[4] = Insulin oral delivery, serum human insulin by ELISA; conditions: rats
Description: Oral dosing (PO) compositions of delivery agent compound and human zinc insulin (minimum 26 IU/mg available from Calbiochem—Novabiochem Corp, La Jolla, Calif.) were prepared in deionized water. […] The pH was adjusted to about 7 to 8.5 with NaOH or HCl. […] The final delivery agent compound dose, insulin dose and dose volume amounts are listed below in Table 8.
as §2
Serum insulin levels were determined with an Insulin ELISA Test Kit (Kit # DSL-10-1600 from Diagnostic Systems Laboratories, Inc., Webster, Tex.), modifying the standard protocol in order to optimize the sensitivity and linear range of the standard curve for the volumes and concentrations of the samples used in the present protocol. […] The five values for each time point were averaged and the results plotted as serum insulin concentration versus time.

[5] = Insulin pulmonary delivery, serum insulin by ELISA, ratio to insulin-alone control; format: in vivo, Sprague-Dawley rats; conditions: rats
Description: Dosing compositions of delivery agent compound and human insulin in water were prepared. Typically, to 1.5 mg of delivery agent compound was added deionized water to bring the volume to 1.0 ml, and the solution was vortexed. […] The pH was adjusted to between about 7.0 to 8.5 with NaOH or HCl. […] The final delivery agent compound dose, insulin dose and volume dose amounts are listed below in Table 9.
The typical dosing and sampling protocols were as follows. […] A control group of five animals was dosed insulin alone. A tracheal instillator for rodents, equipped with light (available from Penn Century, Inc., Pittsburgh, Pa.) was filled with dosing solution and inserted down the throat until the needle went into the trachea (confirmed visually). The dosing solution was administered by pressing the plunger.
Blood samples from each animal were collected serially from the tail artery, typically at 5, 15, 30, 60 and 120 minutes after dosing. […] The ratio of the area under the curve (AUC) for the test group versus that of the control group is reported below. The ratio of the maximum serum insulin concentration (Cmax) for the test group versus that of the control group is also reported below.

[6] = Salmon calcitonin (sCT) oral delivery, serum sCT by EIA; conditions: rats, delivery agent compound dose 150 mg/kg, sCT dose 30 μg/kg
Description: Oral dosing (PO) compositions of a delivery agent compound and salmon calcitonin (sCT) in deionized water were prepared as described in Table 2 below. […] Either the sodium salt of the compound was used or the free acid was converted to the sodium salt by stirring the resultant solution and adding one equivalent of sodium hydroxide (1.0 N) and diluting with water. The solution was vortexed, then heated (about 37° C.) and sonicated. The pH was adjusted to about 7 (about 6.5 to 8.5) with NaOH or HCl. 90 μg sCT from a sCT stock solution (2 mg/ml made by adding 10001 pH 4 phosphate buffer to sCT and allowing it to go into solution by sitting for about 10-20 minutes and periodically gently inverting) was added to the solution.
The typical dosing and sampling protocols were as follows. Male Sprague-Dawley rats weighing between 200-250 g were fasted for 24 hours and administered ketamine (44 mg/kg) and chlorpromazine (1.5 mg/kg) 15 minutes prior to dosing and again as needed to maintain anesthesia. A dosing group of five animals was administered one of the dosing solutions. For oral dosing, an 11 cm Rusch 8 French catheter was adapted to a 1 ml syringe with a pipette tip. The syringe was filled with dosing solution by drawing the solution through the catheter, which was then wiped dry. The catheter was placed down the esophagus leaving 1 cm of tubing past the incisors. Solution was administered by pressing the syringe plunger.
Blood samples were collected serially from the tail artery, typically at time=0, 10, 20, 30, 60 and 90 minutes. […] Numbers were adjusted according to baseline values obtained at time=0. The results from the animals in each dosing group were averaged for each time point.

[7] = Recombinant human growth hormone (rhGH) oral delivery, serum rhGH by immunoassay; conditions: oral gavage, rats, delivery agent compound 200 mg/kg, rhGH 3 mg/kg
Description: Oral gavage (PO) dosing solutions of delivery agent compound and rhGH in phosphate buffer were prepared by mixing. A solution of the delivery agent compound was made either with the sodium salt of the delivery agent compound or by converting the free acid to its sodium salt.
The typical dosing and sampling protocols were as follows. Male Sprague-Dawley rats weighing 200-250 g were fasted for 24 hours and administered ketamine (44 mg/kg) and chlorpromazine (1.5 mg/kg) 15 minutes prior to dosing and again as needed to maintain anesthesia. A dosing group of five animals was administered one of the dosing solutions. An 11 cm Rusch 8 French catheter was adapted to a 1 ml syringe with a pipette tip. The syringe was filled with dosing solution by drawing the solution through the catheter, which was then wiped dry. The catheter was placed down the esophagus leaving 1 cm of tubing past the incisors. The dosing solution was administered by pressing the syringe plunger.
Blood samples were collected serially from the tail artery typically at time=15, 30, 45, 60 and 90 minutes. The five samples from each time period were pooled (except for those samples for which standard deviation (SD) and standard error (SE) are reported). Serum rHGH concentrations were quantified by an rHGH immunoassay test kit (Kit # K1F4015 from Genzyme Corporation Inc., Cambridge, Mass.).

[8] = IC (intracolonic), delivery agent compound 50 mg/kg, heparin 25 mg/kg, volume dose 1 ml
[9] = delivery agent compound 25 mg/kg
[10] = delivery agent compound 100 mg/kg, insulin 3 mg/kg, 1 ml/kg
[11] = Table 9 pulmonary delivery, volume 1 ml/kg, delivery agent compound 3 mg/kg, insulin 100 mg/kg (so in the source)
[12] = delivery agent compound 200 mg/kg, insulin 0.5 mg/kg, 1 ml/kg
[13] = delivery agent compound 50 mg/kg
[14] = delivery agent compound 100 mg/kg, insulin 3 mg/kg, 0.5 ml/kg
[15] = pulmonary, volume 0.4 ml/kg, delivery agent compound 0.03 mg/kg, insulin 0.3 mg/kg (so in the source)

Mean Peak Plasma LMWH Concentration ± SD [2, 9]: 1.022 ± 0.432 IU/ml
Mean Peak Serum [IFN] ± SD [3]: 17.357 ± 38 ng/mL
Mean Peak Serum [INS] ± SD [4, 10]: 74.237 ± 1144.49 μU/ml
Cmax (serum insulin) [5, 11]: 74.237 μU/ml
SMILES: CC(=O)c1ccccc1OCc1ccc(C(=O)O)cc1 [Compound 1]
Mean Peak APTT ± SD [1, 8]: 130.84 ± 118.18 s and 231.34 s
Mean Peak Plasma LMWH Concentration ± SD ([2]; delivery agent compound 50 mg/kg, 50 mg/kg): 1.734 ± 0.192 IU/ml and 1.038 ± 0.338 IU/ml
Mean Peak Serum sCT (pg/ml ± SD) (SE) ([6]; dose volume 1 (ml), 150 mg/kg): 317 ± 405 pg/mL and 398 ± 237 pg/mL and 410 ± 471 pg/mL

Mean Peak Plasma LMWH Concentration ± SD [2, 9]: 0.47 ± 0.17 IU/ml
Mean Peak Serum [IFN] ± SD [3]: 0.5696 ± 0.8 ng/mL
Mean Peak Serum [INS] ± SD [4, 12]: 129.5 ± 131.5 μU/ml
SMILES: O=C(O)CCCCCCOc1ccccc1O [Compound 6, (2-hydroxyphenyl)-7-oxyheptanoic acid]
Mean Peak APTT ± SD [1, 8]: 157.4 ± 33.7 s and 99.8 ± 50.6 s
Mean Peak APTT ± SD ([1]; PO (oral gavage), delivery agent compound 300 mg/kg, heparin 100 mg/kg, volume dose 3 ml): 193 ± 61.2 s

Mean Peak Plasma LMWH Concentration ± SD [2, 13]: 0.088 ± 0.121 IU/ml
Mean Peak Serum [INS] ± SD [4, 10]: 63.5884 ± 129.23 μU/ml
Cmax (serum insulin) [5, 11]: 63.5884 μU/ml
Mean Peak Serum [rhGH] ([7]; volume dose 1 ml): 34.3 ng/mL
SMILES: CC(=O)c1ccccc1OCCCCC(=O)O [Compound 10]
Mean Peak APTT ± SD [1, 8]: 81.8 ± 7 s and 63.5 s

Mean Peak Plasma LMWH Concentration ± SD [2, 13]: 0.262 ± 0.106 IU/ml
Mean Peak Serum [INS] ± SD [4, 14]: 240.5 ± 528.29 μU/ml
Mean Peak Serum [rhGH] ([7]; volume dose 1 ml): 8.3 ng/mL
SMILES: CCC(=O)c1ccccc1OCCCC(=O)O [Compound 26]
Mean Peak APTT ± SD [1, 8]: 76.7 s and 41.534 ± 25.56 s

Mean Peak Plasma LMWH Concentration ± SD [2, 13]: 0.07 ± 0.01 IU/ml
Mean Peak Serum [IFN] ± SD [3]: 0 ng/mL
Mean Peak Serum [INS] ± SD [4, 12]: 3.12 ± 2.26 μU/ml
Mean Peak Serum [INS] ± SD ([4]; delivery agent compound 200 mg/kg, insulin 3 mg/kg, 1 ml/kg): 6.38 ± 4.42 μU/ml
Mean Peak Serum [rhGH] ([7]; volume dose 1 ml): 0 ng/mL
SMILES: O=C(O)CCCCCCCOc1ccccc1C(=O)O [Compound 32]
Mean Peak APTT ± SD [1, 8]: 26.5 ± 2.3 s
Mean Peak Serum sCT (pg/ml ± SD) (SE) ([6]; dose volume 1 (ml), 150 mg/kg): 175 ± 148 pg/mL and 103 ± 75 pg/mL and 187 ± 135 pg/mL

Mean Peak Serum [INS] ± SD [4, 10]: 7.843 ± 8.527 μU/ml
Cmax (serum insulin) [5, 11]: 7.843 μU/ml
SMILES: CCC(=O)c1ccc(OCCCCCCCC(=O)O)cc1 [Compound 63]

Mean Peak Serum [IFN] ± SD [3]: 3.4451 ± 4.5 ng/mL
Mean Peak Serum sCT (pg/ml ± SD) (SE) ([6]; dose volume 1 (ml), 150 mg/kg): 142 ± 142 pg/mL and 256 ± 158 pg/mL
Mean Peak Serum sCT (pg/ml ± SD) (SE) ([6]; dose volume 2 (ml)): 681 ± 419 pg/mL
Mean Peak Serum [rhGH] ([7]; volume dose 1 ml): 15 ng/mL and 14.7 ng/mL
SMILES: O=C(O)c1ccc(COc2ccc(O)cc2)cc1 [Compound 67]
Cmax (serum insulin) ([5]; pulmonary, volume 0.4 ml/kg, delivery agent compound 0.03 mg/kg, insulin 0.06 mg/kg (so in the source)): 82.23 ± 47.16 μU/ml and 70.85 ± 36.24 μU/ml
Cmax (serum insulin) ([5]; pulmonary, volume 0.4 ml/kg, delivery agent compound 0.03 mg/kg, insulin 0.15 mg/kg (so in the source)): 84.40 ± 15.06 μU/ml and 91.20 ± 37.30 μU/ml
Cmax (serum insulin) [5, 15]: 66.04 ± 47.42 μU/ml and 92.14 ± 36.17 μU/ml and 115.04 ± 68.23 μU/ml

Cmax (serum insulin) [5, 15]: 80.56 ± 30.51 μU/ml
Mean Peak Serum [rhGH] ([7]; volume dose 1 ml): 0 ng/mL
SMILES: O=C(O)c1ccc(COc2ccccc2Cl)cc1 [Compound 78]

Further lines, the compound ahead of its results:

SMILES: O=C(O)C=Cc1ccccc1OCCCCCCCC(=O)O [Compound 25]
Mean Peak Serum [INS] ± SD [4, 10]: 47.2162 ± 31.43 μU/ml
Cmax (serum insulin) [5, 11]: 47.2162 μU/ml
Mean Peak Serum sCT (pg/ml ± SD) (SE) ([6]; dose volume 1 (ml)): 53 ± 77 pg/mL
Mean Peak Serum [rhGH] ([7]; volume dose 1 ml): 0 ng/mL

SMILES: O=C(O)CCCCCCCCCOc1cccc(O)c1 [Compound 44]
Mean Peak Serum [INS] ± SD [4, 14]: 97.49 ± 134.1 μU/ml
Mean Ratio of AUC for insulin + compound versus AUC for insulin alone [5, 15]: 0.76
Mean Peak Serum sCT (pg/ml ± SD) (SE) ([6]; dose volume 1 (ml)): 188 ± 184 pg/mL

SMILES: O=C(O)CCCCCOc1cccc(O)c1 [Compound 45]
Mean Peak Serum [INS] ± SD [4, 12]: 70.32 ± 149.1 μU/ml
Mean Ratio of AUC for insulin + compound versus AUC for insulin alone [5, 15]: 1.01
Mean Peak Serum sCT (pg/ml ± SD) (SE) ([6]; dose volume 1 (ml), 150 mg/kg): 125 ± 187 pg/mL and 172 ± 158 pg/mL

SMILES: O=C(O)CCCCCCCCCOc1ccc(O)cc1 [Compound 48]
Cmax (serum insulin) [5, 15]: 135.56 ± 80.96 μU/ml
Mean Ratio of AUC for insulin + compound versus AUC for insulin alone [5, 15]: 1.30
Mean Peak Serum sCT (pg/ml ± SD) (SE) ([6]; dose volume 3 (ml)): 95 ± 156 pg/mL
Mean Peak Serum sCT (pg/ml ± SD) (SE) ([6]; dose volume 4 (ml)): 35 ± 49 pg/mL

SMILES: O=C(O)CCCCCOc1ccc(O)cc1 [Compound 49]
Mean Peak Serum [INS] ± SD [4, 14]: 335.7 ± 227.05 μU/ml
Mean Ratio of AUC for insulin + compound versus AUC for insulin alone [5, 15]: 0.54

SMILES: O=C(O)CCCCCCCOc1ccc(F)cc1F [Compound 71]
Cmax (serum insulin) [5, 15]: 57.82 ± 35.28 μU/ml
Mean Peak Serum sCT (pg/ml ± SD) (SE) ([6]; dose volume 2 (ml)): 302 ± 246 pg/mL
Mean Peak Serum [rhGH] ([7]; volume dose 3 ml): 5.94 ng/mL

Reference: patent publication US8410309B2, “Phenoxy carboxylic acid compounds and compositions for delivering active agents” (Emisphere Technologies, Inc., priority 1999, dated 2013)
